Several values for one entry are separate records, joined by “and”; a condition that tells them apart may be missing. Equal values may be shown once.
Tested on: neonatal rat cardiomyocytes
Experiment: cDNA microarray analysis (Affymetrix Rat Expression Set 230), x-fold changes of clustered genes
Type: cell-based
Conditions: 72 h; experiments (1) and (2); listed as FGF
Description: Animal experiments were performed in accordance with guidelines of Children's Hospital, Boston and UCLA. Ventricular cardiomyocytes from fetal (E19), 2-day-old (P2) and adult (250-350 g) Wistar rats (Charles River) were isolated as described with minor modifications (Engel et al. 1999; Engel et al. 2003). After digestion of fetal or neonatal hearts (0.14 mg/ml collagenase II (Invitrogen), 0.55 mg/ml pancreatin (Sigma)) cells were cultured in DMEM/F12 (GIBCO) containing 3 mM Na-pyruvate, 0.2% BSA, 0.1 mM ascorbic acid (Sigma), 0.5% Insulin-Transferrin-Selenium (100×), penicillin (100 U/ml), streptomycin (100 μg/ml), and 2 mM L-glutamine (GIBCO). Adult cardiomyocytes were cultured for 1 day in standard medium (DMEM, 25 mM Hepes, 5 mM taurine, 5 mM creatine, 2 mM L-carnitine (Sigma), 20 U/ml insulin (GIBCO), 0.2% BSA, penicillin (100 U/ml), and streptomycin (100 μg/ml)). Cells were stimulated in culture medium without BSA containing 2 mM L-glutamine. Neonatal and adult cardiomyocytes were initially cultured for 48 h in the presence of 20 μM cytosine β-D-arabinofuranoside (araC, Sigma) and 5% horse serum before stimulation to prevent proliferation of non-myocytes. Adult cardiomyocytes were incubated another 3 days with araC during stimulation. Neonatal cardiomyocytes were stimulated every day with growth factors for BrdU and H3P analyses (FGF1 and NRG-1-1β at 50 ng/ml, IL-1β at 100 ng/ml, R&D Systems, all diluted in 0.1% BSA/PBS). SB203580 and LY294002 (Calbiochem) was added every day. Adult cardiomyocytes were stimulated with fresh medium and SB203580 every 3 days.
RNA of neonatal cardiomyocytes was prepared 72 h after stimulation using Trizol (Invitrogen). RT-PCR was performed following standard protocols (Supplemental Table S4). Affymetrix technology was applied using the Rat Expression Set 230.
To determine the effect of p38 inhibition on cardiomyocyte differentiation and proliferation, a specific inhibitor of p38α and p38β, SB203580, was used and evaluated using cDNA microarray analyses using neonatal rat cardiomyocytes. […] Expression changes of a subset of genes were validated by RT-PCR.
Stimulation of neonatal cardiomyocytes with FGF1 induces fetal gene expression. To determine if FGF1, in combination with p38 inhibition, can reverse differentiation and induce cell cycle re-entry, we repeated cDNA microarray analyses (Supplemental Table S1). […]

Substance: FGF1: growth factor FGF1 (R&D Systems)
- Growth response protein (CL-6) expression, x-fold change: 2.5 x-fold and 1.8 x-fold
- Hepatocyte F2alpha receptor expression, x-fold change: 0.9 x-fold and 1.0 x-fold
- IBP6 expression, x-fold change: 0.6 x-fold and 0.9 x-fold
- IGF1 expression, x-fold change: 0.5 x-fold and 0.3 x-fold
- IGFBP3 expression, x-fold change: 0.3 x-fold and 0.4 x-fold
- IL12a expression, x-fold change: 2.9 x-fold and 2.8 x-fold
- IRX4 expression, x-fold change: 0.7 x-fold and 0.9 x-fold
- Id1 expression, x-fold change: 2.7 x-fold and 2.3 x-fold
- Id3a expression, x-fold change: 2.4 x-fold and 1.9 x-fold
- Integrin, alpha 6 expression, x-fold change: 2.4 x-fold and 2.5 x-fold
- Integrin, alpha 11 expression, x-fold change: 1.7 x-fold and 1.2 x-fold
- Jag1 expression, x-fold change: 0.4 x-fold and 0.6 x-fold
- Ki67 expression, x-fold change: 1.7 x-fold and 1.5 x-fold
- Kinesin family member 22 expression, x-fold change: 1.6 x-fold and 1.7 x-fold
- Kinetochore-associated protein 1 expression, x-fold change: 1.9 x-fold and 2.1 x-fold
- Kruppel-like factor 2 expression, x-fold change: 0.7 x-fold and 0.9 x-fold
- LDLR expression, x-fold change: 4.0 x-fold and 2.7 x-fold
- Lgals1 expression, x-fold change: 1.8 x-fold and 1.7 x-fold
- Lgals9 expression, x-fold change: 4.3 x-fold and 3.1 x-fold
- Lhcgr expression, x-fold change: 0.4 x-fold and 0.8 x-fold
- Lisch7 expression, x-fold change: 0.6 x-fold and 0.8 x-fold
- Lot1 expression, x-fold change: 0.3 x-fold and 0.4 x-fold
- M-protein expression, x-fold change: 8.7 x-fold and 11.0 x-fold
- MAD2-LIKE 1 expression, x-fold change: 1.5 x-fold and 2.8 x-fold
- MCAK expression, x-fold change: 1.8 x-fold and 1.7 x-fold
- MCIP1 expression, x-fold change: 3.0 x-fold and 3.3 x-fold
- MCP-3 expression, x-fold change: 1.3 x-fold and 0.7 x-fold
- MDP77 expression, x-fold change: 1.5 x-fold and 0.8 x-fold
- MKK6 expression, x-fold change: 0.2 x-fold and 0.1 x-fold
- MLC1, atrial isoform expression, x-fold change: 3.3 x-fold and 2.8 x-fold
- MLC 2a expression, x-fold change: 2.7 x-fold and 2.1 x-fold
- MLC3, alkali expression, x-fold change: 13.9 x-fold and 23.2 x-fold
- MPP1 expression, x-fold change: 1.4 x-fold and 2.0 x-fold
- MURF1 expression, x-fold change: 0.6 x-fold and 0.5 x-fold
- MURF expression, x-fold change: 0.8 x-fold and 0.9 x-fold
- Mapt expression, x-fold change: 1.7 x-fold and 1.9 x-fold
- Mdk expression, x-fold change: 0.4 x-fold and 0.6 x-fold
- Melusin expression, x-fold change: 3.8 x-fold and 3.0 x-fold
- Moesin expression, x-fold change: 2.2 x-fold and 2.4 x-fold
- Multi PDZ domain protein 1 expression, x-fold change: 0.3 x-fold and 0.6 x-fold
- Mustang expression, x-fold change: 4.8 x-fold and 5.2 x-fold
- Myopodin expression, x-fold change: 3.7 x-fold and 3.2 x-fold
- NppB expression, x-fold change: 10.4 x-fold and 11.6 x-fold
- Nppa expression, x-fold change: 3.1 x-fold and 3.5 x-fold
- Nr1h3 expression, x-fold change: 0.7 x-fold and 0.6 x-fold
- Nrtn expression, x-fold change: 0.4 x-fold and 0.6 x-fold
- Ntf3 expression, x-fold change: 0.2 x-fold and 0.3 x-fold
- NuSAP expression, x-fold change: 1.5 x-fold and 1.4 x-fold
- Nuclear receptor co-activator NRIF3 expression, x-fold change: 1.4 x-fold and 1.2 x-fold
- Osteoblast specific factor expression, x-fold change: 0.3 x-fold and 0.2 x-fold
- P57 expression, x-fold change: 0.2 x-fold and 0.3 x-fold
- PAPIN expression, x-fold change: 0.5 x-fold and 0.7 x-fold
- PEA-15 expression, x-fold change: 2.5 x-fold and 2.1 x-fold
- PRKAR2 expression, x-fold change: 1.6 x-fold and 1.2 x-fold
- PTP-RL9, receptor-type protein tyrosine phosphatase expression, x-fold change: 1.1 x-fold and 0.8 x-fold
- Pdcd4 expression, x-fold change: 0.8 x-fold and 0.7 x-fold
- Pdgfra expression, x-fold change: 0.4 x-fold and 0.3 x-fold
- Pem expression, x-fold change: 0.9 x-fold and 0.7 x-fold
- Plasminogen activator inhibitor 1 expression, x-fold change: 5.3 x-fold and 8.8 x-fold
- Pleiotrophin expression, x-fold change: 0.2 x-fold and 0.1 x-fold
- Polyamine-modulated factor 1 expression, x-fold change: 1.5 x-fold and 1.4 x-fold
- Prc1 expression, x-fold change: 2.4 x-fold and 1.9 x-fold
- Prg-1 expression, x-fold change: 0.2 x-fold and 0.3 x-fold
- Protease inhibitor 7 expression, x-fold change: 1.3 x-fold and 0.8 x-fold
- Protein-tyrosine phosphatase expression, x-fold change: 0.5 x-fold and 0.6 x-fold
- Ptpla expression, x-fold change: 3.3 x-fold and 2.2 x-fold
- Ptprc/CD45 expression, x-fold change: 0.5 x-fold and 0.7 x-fold
- RAC2 expression, x-fold change: 0.7 x-fold and 0.6 x-fold
- RAD51 expression, x-fold change: 1.5 x-fold and 1.0 x-fold
- RNA binding motif protein 5 expression, x-fold change: 0.6 x-fold and 0.5 x-fold
- ROC2 expression, x-fold change: 1.6 x-fold and 2.4 x-fold
- Rac GTPase-activating protein 1 expression, x-fold change: 1.3 x-fold and 1.9 x-fold
- Retinoic acid inducible protein 3 expression, x-fold change: 1.5 x-fold and 1.3 x-fold
- Retinoic acid receptor, gamma expression, x-fold change: 0.6 x-fold and 1.0 x-fold
- Rgpr expression, x-fold change: 0.6 x-fold and 0.9 x-fold
- Rgs3 expression, x-fold change: 1.3 x-fold and 1.9 x-fold
- Rho family GTPase 1 expression, x-fold change: 4.1 x-fold and 3.9 x-fold
- Rho-related BTB domain containing 3 expression, x-fold change: 0.5 x-fold and 0.6 x-fold
- SHARP-1/dec2/Bhlhb3 expression, x-fold change: 0.2 x-fold and 0.3 x-fold
- SPARC related modular calcium binding 2 expression, x-fold change: 0.3 x-fold and 0.4 x-fold
- STK38 expression, x-fold change: 3.9 x-fold and 2.0 x-fold
- STk18 expression, x-fold change: 1.3 x-fold and 1.9 x-fold
- Semaphorin 4B expression, x-fold change: 0.6 x-fold and 0.5 x-fold
- Semaphorin 6D-1 expression, x-fold change: 0.5 x-fold and 0.3 x-fold
- Sh3kbp1 expression, x-fold change: 1.1 x-fold and 0.9 x-fold
- Shc SH2-domain binding protein 1 expression, x-fold change: 1.6 x-fold and 1.1 x-fold
- Smooth muscle 22 protein expression, x-fold change: 1.2 x-fold and 1.4 x-fold
- Snf1lk expression, x-fold change: 3.5 x-fold and 3.9 x-fold
- Soluble fibroblast growth factor receptor IIIb (sKGF-R gene) expression, x-fold change: 0.9 x-fold and 0.8 x-fold
- Sox4 expression, x-fold change: 0.7 x-fold and 0.6 x-fold
- Sox11 expression, x-fold change: 0.9 x-fold and 1.3 x-fold
- Spag5 expression, x-fold change: 1.4 x-fold and 1.9 x-fold
- Sponf expression, x-fold change: 0.2 x-fold and 0.3 x-fold
- Stathmin expression, x-fold change: 1.2 x-fold and 1.6 x-fold
- TBX2 expression, x-fold change: 1.8 x-fold and 2.0 x-fold
- Testin expression, x-fold change: 0.6 x-fold and 0.7 x-fold
- Tgf beta 2 expression, x-fold change: 1.4 x-fold and 1.5 x-fold
- Tgfbr2 expression, x-fold change: 0.5 x-fold and 0.9 x-fold
- Thymidine kinase expression, x-fold change: 1.5 x-fold and 1.9 x-fold
- Tieg expression, x-fold change: 0.3 x-fold and 0.4 x-fold
- Tmeff1 expression, x-fold change: 2.1 x-fold and 2.4 x-fold
- Tnfrsf12a expression, x-fold change: 3.7 x-fold and 3.3 x-fold
- Topoisomerase (DNA) II alpha expression, x-fold change: 1.8 x-fold and 1.7 x-fold
- Transferrin receptor expression, x-fold change: 2.9 x-fold and 1.6 x-fold
- Tspan-2 expression, x-fold change: 2.4 x-fold and 1.8 x-fold
- Tspan-6 expression, x-fold change: 2.2 x-fold and 1.7 x-fold
- Tubulin alpha-4 expression, x-fold change: 2.7 x-fold and 2.6 x-fold
- Tubulin beta class I expression, x-fold change: 2.4 x-fold and 1.9 x-fold
- Tubulin, beta 2 expression, x-fold change: 1.3 x-fold and 1.2 x-fold
- Unc5h2 expression, x-fold change: 1.7 x-fold and 1.3 x-fold
- VEGF receptor-2FLK-1 expression, x-fold change: 1.8 x-fold and 1.6 x-fold
- VEGFD expression, x-fold change: 0.1 x-fold and 0.2 x-fold
- Vegfc expression, x-fold change: 0.4 x-fold and 0.6 x-fold
